Values of other authors as cited in patent US10722516B2, “Use of landiolol hydrochloride in the long-term treatment of tachyarrhythmias” (AOP Orphan Pharmaceuticals AG, priority 2013, dated 2020).
Counter-ions that a name gives are not always drawn.

Details: in vivo; cited from earlier work

COC(=O)CCc1ccc(OCC(O)CNC(C)C)cc1 (stereo not drawn) [Esmolol, Esmolol hydrochloride]
alpha-distribution half-life: approximately 2 minutes | total body clearance relative to cardiac output: ~3 times | total body clearance relative to hepatic blood flow: ~14 times
